This is an account of results in patent US20040192581A1, “Topical anti-infective formulations” (priority 2002, published 2004).

This experiment concerns S. aureus. Description: In vitro efficacy of nisin cream versus nisin in PBS, viable cell count. It counts as cell-based. Particulars: 37° C. for 60 minutes. On the procedure: A topical cream (100 g) was prepared by heating the waxes and oils to about 70° C. Nisin in an aqueous solution was added after the cream had cooled to room temperature. The following ingredients were mixed in a 250 mL glass beaker until a homogenous compound was formed:
To test the anti-infective activity of the nisin-based cream, and to compare this activity to that of the same concentration of nisin in PBS, 20 μL of a suspension of 9×10^8 CFU/mL S. aureus was added to 1 g of cream and 1 mL of PBS at the nisin concentrations indicated in Table I. The samples were vortexed to mix and incubated at 37° C. for 60 minutes. 1 mL of mineral oil was added to the cream to facilitate pipetting and then serial dilutions were plated for enumeration of viable cells. The data in Table I show the viable cells for each nisin concentration.

Consider Nisin, for which the “viable cells, PBS” value reads like this: (nisin 0.5 μg/ml in PBS) “TNTC”; (nisin 2.5 μg/ml in PBS) “TNTC”; (nisin 12.5 μg/ml in PBS) 482 cfu/ml. Also, the “viable cells, Cream” value reads like this: (nisin 0.5 μg/ml in cream) 1082 cfu/ml; (nisin 2.5 μg/ml in cream) 140 cfu/ml; (nisin 12.5 μg/ml in cream) 12 cfu/ml.
